Patent US8097650B2, “Method of treating a condition associated with phosphorylation of TASK-1” (The Trustees of Columbia University In The City of New York, priority 2005, dated 2012)
Read-outs that look alike come from different tables or passages of the source.

How the values were obtained:
murine TASK-1 [1] = assay: TASK-1 current expressed in CHO cells (whole-cell ramp clamp); assay type: cell-based, mouse
Method: The TASK-1 clone (provided by Professor Y. Kurachi, Osaka University) was co-transfected in CHO cells with CD8 plasmid using Lipofectamine Plus (Invitrogen) according to the manufacturer's instructions. 48 h later cells were transferred to the electrophysiology chamber and anti-CD8 coated beads (Dynal Biotech) were added to identify CD8 expressing cells. Expressing cells were voltage clamped using a ramp clamp (see below). CHO cells were used in these experiments, in part, because they express endogenous PAFR.
Chinese hamster ovary cells (CHO) were grown in F-12 medium supplemented with 10% fetal bovine serum. Twenty-four hours prior to transfection, cells were seeded into 6 well plates at 80-90% of confluence. Transfections were carried out with the GeneJammer transfection reagent (Stratagene) according to the manufacturer's instructions. Briefly, cells were washed with PBS and their medium replaced with supplemented F-12 medium (900 μl/well). For each well, GeneJammer (6 μl) was incubated with Opti-MEM (90 μl) followed by the addition of DNA (1 μg). This mixture was then added to the wells and 3 h later an additional 2 ml of supplemented F-12 medium was added. After incubating overnight, the cells were washed and their medium replaced.
Cells were either co-transfected with pCMV-TASK1 together with pEGFP-C1 (1 μg total, 3:1) or transfected with […] or T381A-pTIE (1 μg). 48 h after the transfection the cells were checked under the microscope for green fluorescence. Approximately 20% of the cells were positive for EGFP and these were then used for patch-clamp experiments. Due to the culture-to-culture variability in the expression of TASK-1 current, most comparisons were made on matched controls from the same transfection. Summary results were then obtained by pooling data from several different culture preparations.
The myocyte suspension or the coverslip with CHO cells was placed into a perfusion chamber, mounted on the stage of an inverted microscope. Unless otherwise indicated, CHO cells were superfused at room temperature with standard external Tyrode's buffer, containing (mM): NaCl, 140; KCl, 5.4; CaCl2, 1; MgCl2, 1; HEPES, 5; glucose, 10; adjusted to pH 7.4. Recordings were begun after the current reached a stable baseline (usually 3 to 4 min after initial cell rupture). In myocytes, TASK-1 current is small and exists in the presence of numerous larger K^+ currents. In order to increase the inward component of TASK-1 current and to block other potassium currents in myocytes, a modified high K^+ external solution (modified Tyrode's) was used to reduce outward rectification of TASK-1 current. The composition of this solution-was (in mM): NaCl, 100; KCl, 50; CaCl2, 1; MgCl2, 1; HEPES, 5; glucose, 10; tetraethylammonium (TEA), 1; CsCl, 5; adjusted to pH 7.4. Membrane potential and current were measured in the whole cell configuration using borosilicate glass pipettes with a tip resistance between […] and filled with a pipette solution containing (mM): aspartic acid, 130; KOH, 146; NaCl, 10; CaCl2, 2; EGTA, 5; HEPES, 10; MGATP, 2; pH 7.2. The stock solutions of C-PAF and of the PKC inhibitor, bisindolylmaleimide (BIM-I; Calbiochem), were prepared in water and diluted to the final concentrations in Tyrode's or modified Tyrode's, as appropriate. The PKC activator, PMA, was prepared in DMSO and then diluted in Tyrode's. […] Myocytes treated with the peptides were monitored continuously beginning immediately after rupture to detect the occurrence of any arrhythmias during dialysis of the peptide. Application of C-PAF to cells treated with the inhibitor peptide was started after the peptide had been permitted to dialyse into the cell (8-10 min after rupture for CHO or 10-12 min after rupture for myocytes).
The current and the voltage protocols were generated using Clampex 8.0 software applied by means of an Axopatch 200-B and a Digidata 1200 interface (Axon Instruments). […]

[2] = test system: murine TASK-1 T381A mutant; assay: T381A mutant TASK-1 current in CHO cells; assay type: cell-based, mouse
Method: pCMV-TASK1 (cTBAK) consists of a 1.9 kb sequence of murine TASK-1 inserted in pcDNA3.1 (a kind gift of Dr. Yoshihisa Kurachi, University of Osaka, Japan) and has been previously described (Leonoudakis D et al. (1998) J Neurosci 18: 868-877). pEGFP-C1 and pIRES-EGFP were purchased from Clontech. pTIE (TASK1-IRES-EGFP) was constructed by inserting a 1.9 kb EcoR1 fragment from pCMV-TASK1 into EcoR1 digested pIRES-EGFP. Site-directed mutagenesis was performed on pTIE using the Quik-Change kit (Stratagene) following the manufacturer's instructions. […]
Cells were either co-transfected with pCMV-TASK1 together with pEGFP-C1 (1 μg total, 3:1) or transfected with […] or T381A-pTIE (1 μg). 48 h after the transfection the cells were checked under the microscope for green fluorescence. […]
The myocyte suspension or the coverslip with CHO cells was placed into a perfusion chamber, mounted on the stage of an inverted microscope. […] Membrane potential and current were measured in the whole cell configuration using borosilicate glass pipettes with a tip resistance between […] and filled with a pipette solution containing (mM): aspartic acid, 130; KOH, 146; NaCl, 10; CaCl2, 2; EGTA, 5; HEPES, 10; MGATP, 2; pH 7.2. […] Myocytes treated with the peptides were monitored continuously beginning immediately after rupture to detect the occurrence of any arrhythmias during dialysis of the peptide. […]

human TASK-1 T383A = assay: Human TASK-1 T383A mutant current in CHO cells; assay type: cell-based; conditions: Tyrode's pH 8, ramp
Excerpt: FIGS. 24A-24B. Mutations in human TASK-1 remove the sensitivity to C-PAF and PMA when the channel is expressed in CHO cells. Two human TASK-1 (hTASK-1) mutants in which either serine-358 was converted to alanine (S358A) or threonine-383 was converted to alanine (T383A) were generated and separately expressed in CHO cells. The C-PAF-sensitive (24A) and PMA-sensitive currents (24B) were obtained in Tyrode's at pH 8 using a ramp protocol in […] configuration, essentially as described in FIG. 15. […] However, the S358A channel was not inhibited in the presence of C-PAF (24A) and the T383A channel was not inhibited by PMA (24B).

TASK-1 [3] = molecular target: T1, TASK-1 (Mus musculus, UniProt O35111); assay: C-PAF-sensitive steady-state current in murine ventricular myocytes (voltage clamp); assay type: cell-based
T1 construct: endogenous in cells; host or cells: adult mouse ventricular myocytes (C57/B16 background; WT or PAFR KO)
T1 sequence (O35111 whole entry): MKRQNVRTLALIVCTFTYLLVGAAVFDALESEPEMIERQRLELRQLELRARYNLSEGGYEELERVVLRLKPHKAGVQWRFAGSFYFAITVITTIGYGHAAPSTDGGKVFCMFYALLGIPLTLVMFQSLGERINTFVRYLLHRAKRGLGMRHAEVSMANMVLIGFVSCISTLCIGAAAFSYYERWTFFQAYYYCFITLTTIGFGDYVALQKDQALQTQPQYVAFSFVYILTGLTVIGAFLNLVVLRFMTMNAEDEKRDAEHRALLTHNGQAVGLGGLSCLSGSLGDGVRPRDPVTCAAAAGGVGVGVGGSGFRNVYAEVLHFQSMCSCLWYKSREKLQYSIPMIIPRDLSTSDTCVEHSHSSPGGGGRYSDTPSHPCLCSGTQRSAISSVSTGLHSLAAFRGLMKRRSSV
Method: (§1) Adult mice, 2-3 months old, were anesthetized with ketamine/xylazine and their hearts were removed according to protocols approved by the Columbia University-IACUC. Experiments were performed on single rod-shaped, quiescent ventricular myocytes dissociated using a standard retrograde collagenase perfusion (Kuznetsov V et al. (1995) Circ Res 76: 40-52) from hearts of mice that were either wild-type (WT), or PAFR knockouts (KO). Both WT and KO mice were bred on a C57/B16 background. The derivation of the KO mice has been described previously (Hoffman, B F et al.(1996) J Cardiovasc Electrophysiol 7:120-133).
(§2) Prior to electrophysiological measurements, cells were placed into the perfusion chamber and superfused at room temperature with Tyrode's buffer (in mM: NaCl, 140; KCl, 5.4; CaCl2 1; MgCl2, Hepes, 5; Glucose, 10; pH 7.4). The whole-cell patch clamp technique was used with pipettes having resistances of 1.5-3 MΩ (intracellular solution, in mM: aspartic acid, 130; KOH, 146; NaCl, 10; CaCl2, 2; EGTA, 5; Hepes, 10; MgATP, 2; pH 7.2). Solutions of C-PAF, the PAFR antagonist, CV-6209 (Biomol) and the PKC inhibitor, bisindolylmaleimide I (BIM I; Calbiochem) were prepared in water and diluted in Tyrode's before use. […] A custom-made fast perfusion device was used to exchange the solution around the cell within 1 s (DiFrancesco et al. (1986) J Physiol 377: 61-88).
(§3) Current and voltage protocols were generated using Clampex 7.0 software applied by means of an Axopatch 200B amplifier and a Digidata 1200 interface (Axon Instruments). During voltage clamp, steady state current traces were acquired at 500 Hz and final filtered at 10 Hz. During current clamp, membrane voltage was acquired at 5 KHz and filtered at 1 KHz. Ramp clamps were conducted by imposing a voltage ramp (14 mV/s) at a 500 Hz acquisition rate with 1 kHz filtering. Data were analyzed using pCLAMP 8.0 (Axon) and Origin 6.0 (Microcal) and are presented as mean±SEM. Steady-state current was determined by computer calculation of average current over a time period of at least 5 s. In all experiments, the n value indicates the number of myocytes studied, and represents pooled data from at least 2 (voltage clamp) or 3 (current clamp) animals. Student's t-test, one-way ANOVA and χ^2 tests were used; a value of p<0.05 was considered statistically significant. Records have been corrected for the junction potential, which was measured to be 9.8 mV.

TASK-1 [4] = molecular target: T1, TASK-1; assay: Methanandamide-sensitive current in murine ventricular myocytes; assay type: cell-based
Excerpt: as §2
Current and voltage protocols were generated using Clampex 7.0 software applied by means of an Axopatch 200B amplifier and a Digidata 1200 interface (Axon Instruments). During voltage clamp, steady state current traces were acquired at 500 Hz and final filtered at 10 Hz. […] Data were analyzed using pCLAMP 8.0 (Axon) and Origin 6.0 (Microcal) and are presented as mean±SEM. Steady-state current was determined by computer calculation of average current over a time period of at least 5 s. […] Records have been corrected for the junction potential, which was measured to be 9.8 mV.

quiescent myocytes = assay: Spontaneous activity in quiescent mouse ventricular myocytes (current clamp); assay type: cell-based
Method: as §1, §2, §3

[5] = test system: adult rat ventricular myocytes; assay: Methanandamide-induced arrhythmias in cultured adult rat ventricular myocytes; assay type: cell-based; conditions: paced at 1 Hz
Method: FIG. 28. Methanandamide-induced arrhythmias are prevented by over expression of TREK-1 in cultured myocytes. The action potentials of cultured adult rat ventricular myocytes were recorded in current clamp mode during stimulation at 1 Hz.
The action potentials of cultured adult rat ventricular myocytes were recorded in current clamp mode during stimulation at 1 Hz.

murine TASK-1 [6] = conditions: typical, from Barbuti et al. 2002; cited from earlier work
PKC = conditions: cited from earlier work

## CCCCCCCCCCCCCC(=O)O[C@@H]1[C@@H](C)[C@@]2(O)[C@@H](C=C(CO)C[C@]3(O)C(=O)C(C)=C[C@@H]23)[C@@H]2C(C)(C)[C@]12OC(C)=O [PMA, phorbol 12-myristate 13-acetate]
Murine TASK-1 [1]; +30 mV, C-PAF 185 nM or PMA 100 nM, no peptide
  TASK-1 current density in the presence of drug: 59.2±10.1 pA/pF
Murine TASK-1 [1]; +30 mV, PMA 100 nM (n=17), C-PAF 185 nM (n=20)
  inhibition of TASK-1 current: 19.8±2.7%
Murine TASK-1 [1]; PKCε-inhibitor peptide 100 nM in pipette, C-PAF 185 nM or PMA 100 nM
  TASK-1 current density after drug: 41.2±12.3 pA/pF
Murine TASK-1 [1]; scrambled peptide 100 nM in pipette, PMA 100 nM
  TASK-1 current density after drug: 36.6±6.2 pA/pF
[2]
  sensitivity of mutant channel to PMA: nor is it sensitive to PMA treatment
Human TASK-1 T383A
  inhibition of T383A channel: not inhibited

## CCCCC/C=C\C/C=C\C/C=C\C/C=C\CCCC(=O)N[C@H](C)CO [methanandamide]
TASK-1 [3]; held at −10 mV, C-PAF 185 nM, Ba2+ 3 mM, Zn2+ 3 mM, lipids and ATFK 10 μM
  effect on C-PAF-sensitive current: inhibited
TASK-1 [4]; methanandamide 10 μM, CV-6209 100 nM or PAFR KO myocytes
  methanandamide-sensitive current with PAFR blocked or absent: fully effective
Quiescent myocytes; methanandamide 10 μM
  quiescent WT myocytes with spontaneous action potentials: 7 of 12
[5]
  arrhythmias in control cells expressing only GFP: typical arrythmias were observed
  arrhythmias in myocytes overexpressing GFP and TREK-1: unable to induce arrhythmias
Murine TASK-1 [6]
  inhibition of TASK-1 current: approximately 60%

## CN(C)CCCn1cc(C2=C(c3c[nH]c4ccccc34)C(=O)NC2=O)c2ccccc21 [BIM I, bisindolylmaleimide I]
TASK-1 [3]; BIM I 100 nM, −10 mV
  effect on C-PAF-sensitive current: completely blocked
TASK-1 [3]; BIM I 40 and 100 nM, BIM V, −10 mV
  effect of PKC inhibitor or inactive analogue on C-PAF-sensitive current: blocked in a dose-dependent manner
TASK-1 [4]; BIM I 100 nM, WT myocytes
  effect on methanandamide-sensitive current: significantly reduced
Quiescent myocytes; BIM I 100 nM, C-PAF 185 nM
  quiescent WT cells that failed to respond to C-PAF: 6 of 8
Murine TASK-1 [1]; BIM-I 100 nM, C-PAF 185 nM
  C-PAF-sensitive current in the presence of PKC inhibitor: no measurable C-PAF-sensitive current
PKC
  Ki: 14 nM
